Test results as given in patent publication US10730880B2, “4,6-substituted-pyrazolo[1,5-a]pyrazines as Janus kinase inhibitors” (Array BioPharma Inc., priority 2014, dated 2020).
Where two headings read alike, the source gives them in different places.

What was measured:
Format in all cases: biochemical
[1] = molecular target: JAK2 (Homo sapiens (Human), UniProt O60674); assay: JAK2 Inhibition Assay (Omnia kinase fluorescence peptide substrate assay)
Excerpt: (§1) The assays described in Examples A, B, C and D for the determination of Tyk2, JAK1, JAK2 and JAK3 kinase activity, respectively, utilized the Omnia® Kinase fluorescence peptide substrate-based technology (Invitrogen). The specific components of the assay mixture are described in Examples A, B, C and D. In these assays, Mg^2+ is chelated upon phosphorylation of the Omnia peptide by the kinase to form a bridge between the chelation-enhanced fluorophore Sox and the phosphate, resulting in an increase in fluorescence emission at 485 nm when excited at […]. The reactions were therefore read at excitation 360 nm and emission was measured at 485 nm every 50 seconds for 45 minutes using a PerkinElmer EnVision Multilabel Plate Reader.
(§2) The final buffer conditions for Tyk2, JAK1, JAK2, and JAK3 assays were as follows: 25 mM HEPES, pH 7.4, 10 mM MgCl2, 0.01% Triton X-100 and 1 mM DTT.
(§3) Two-μL aliquots of these were transferred to a fresh plate for a ten-fold intermediate dilution with assay buffer. Five-μL aliquots of the diluted compounds were then transferred to 20-μL of assay mixtures described in Examples A, B, C and D for a final concentration of DMSO of 2%. […] For each plate, percent of control (POC) values were calculated for each well according to the following equation:
(§4) where Xmax=Average Uninhibited Controls • Xmin=Average Background IC50's were estimated from the POC's using a standard 4-parameter logistic model:
(§5) where A=Minimum Y (Bottom Asymptote) • B=Maximum Y (Top Asymptote) • C=EC50 • D=Slope Factor • X=Compound Concentration (nM) • Y=POC
(§6) The IC50 is defined as the concentration of inhibitor at which the POC equals 50 for the fitted curve.
(§7) Compounds of Formula I were screened for their ability to inhibit JAK2 using the general enzyme inhibition assay method, in which the assay mixture contained 1 mM ATP, 10 μM Omnia® Y7 peptide (Catalog # IVGN KNZ3071C, Invitrogen Corporation, Carlsbad, Calif.) and 4 nM JAK2 in a total volume of 25 μL. JAK2 was purchased from Invitrogen Corporation, Carlsbad, Calif. (catalog # IVGN PV4288).

[2] = molecular target: Human Tyk2 kinase domain (Homo sapiens (Human), UniProt P29597); assay: Tyk2 Inhibition Assay (Omnia kinase fluorescence peptide substrate assay)
Chain of Human Tyk2 kinase domain (P29597 886-1187): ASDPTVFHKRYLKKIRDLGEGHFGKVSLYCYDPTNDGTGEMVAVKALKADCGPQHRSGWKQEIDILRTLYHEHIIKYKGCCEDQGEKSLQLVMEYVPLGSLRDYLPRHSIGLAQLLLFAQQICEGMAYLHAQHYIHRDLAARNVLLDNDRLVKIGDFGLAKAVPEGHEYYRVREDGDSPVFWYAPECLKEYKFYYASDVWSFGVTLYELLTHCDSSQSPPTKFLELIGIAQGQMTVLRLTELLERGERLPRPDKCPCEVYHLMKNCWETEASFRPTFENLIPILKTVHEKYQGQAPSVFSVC
Excerpt: as §1, §2, §3, §4, §5, §6
Compounds of Formula I were screened for their ability to inhibit Tyk2 using the general enzyme inhibition assay method, in which the assay mixture contained 1 mM ATP, 8 μM Omnia® Y12 peptide (Catalog # IVGN KPZ3121C; Invitrogen Corporation, Carlsbad, Calif.) and 1 nM Tyk2 in a total volume of 25 μL. Human Tyk2 kinase domain, comprising amino acids 886 to 1187 with 10 additional histidine residues (histidine tag) on the carboxy terminus, was expressed and purified from bacculovirus in-house at Array BioPharma Inc. (Boulder, Colo.). The histidine tag was cleaved after purification using standard conditions.

[3] = molecular target: JAK3 (Homo sapiens (Human), UniProt P52333); assay: JAK3 Inhibition Assay (Omnia kinase fluorescence peptide substrate assay); conditions: read-out: JAK3 Enzyme IC50 1 mM ATP, averaged IC50 ranges
Chain of JAK3 (P52333 whole entry): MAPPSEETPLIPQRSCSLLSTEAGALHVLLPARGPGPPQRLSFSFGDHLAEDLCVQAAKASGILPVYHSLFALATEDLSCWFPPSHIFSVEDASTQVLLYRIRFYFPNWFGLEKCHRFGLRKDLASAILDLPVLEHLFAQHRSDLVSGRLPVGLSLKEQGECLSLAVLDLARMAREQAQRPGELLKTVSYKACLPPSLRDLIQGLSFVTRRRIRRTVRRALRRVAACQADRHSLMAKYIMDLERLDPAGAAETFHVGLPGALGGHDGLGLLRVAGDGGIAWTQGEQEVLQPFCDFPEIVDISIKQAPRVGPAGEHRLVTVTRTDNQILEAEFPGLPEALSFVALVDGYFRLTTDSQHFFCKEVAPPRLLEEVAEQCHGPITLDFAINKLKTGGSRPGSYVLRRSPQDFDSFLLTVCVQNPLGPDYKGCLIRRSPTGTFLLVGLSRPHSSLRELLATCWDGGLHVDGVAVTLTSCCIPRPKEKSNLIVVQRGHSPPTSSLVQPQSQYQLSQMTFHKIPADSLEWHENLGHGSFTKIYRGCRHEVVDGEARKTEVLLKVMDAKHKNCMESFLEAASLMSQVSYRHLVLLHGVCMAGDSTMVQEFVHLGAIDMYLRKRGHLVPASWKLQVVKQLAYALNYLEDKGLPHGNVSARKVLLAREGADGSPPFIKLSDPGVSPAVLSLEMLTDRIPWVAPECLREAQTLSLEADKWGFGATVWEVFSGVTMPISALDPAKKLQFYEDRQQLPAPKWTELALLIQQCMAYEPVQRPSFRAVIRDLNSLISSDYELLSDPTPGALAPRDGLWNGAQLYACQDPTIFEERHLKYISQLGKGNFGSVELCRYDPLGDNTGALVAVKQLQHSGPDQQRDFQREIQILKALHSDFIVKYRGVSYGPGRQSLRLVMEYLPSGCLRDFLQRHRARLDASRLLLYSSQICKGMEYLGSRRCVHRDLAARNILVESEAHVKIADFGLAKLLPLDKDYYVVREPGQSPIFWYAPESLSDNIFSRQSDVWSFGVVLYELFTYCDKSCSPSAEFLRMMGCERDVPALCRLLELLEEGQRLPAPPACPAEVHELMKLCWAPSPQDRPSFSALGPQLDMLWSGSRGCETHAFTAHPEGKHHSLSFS
Excerpt: as §1, §2
as §3, with “equation: […]” for “equation:”

[4] = molecular target: JAK1 (Homo sapiens (Human), UniProt P23458); assay: JAK1 Inhibition Assay (Omnia kinase fluorescence peptide substrate assay)
Chain of JAK1 (P23458 whole entry): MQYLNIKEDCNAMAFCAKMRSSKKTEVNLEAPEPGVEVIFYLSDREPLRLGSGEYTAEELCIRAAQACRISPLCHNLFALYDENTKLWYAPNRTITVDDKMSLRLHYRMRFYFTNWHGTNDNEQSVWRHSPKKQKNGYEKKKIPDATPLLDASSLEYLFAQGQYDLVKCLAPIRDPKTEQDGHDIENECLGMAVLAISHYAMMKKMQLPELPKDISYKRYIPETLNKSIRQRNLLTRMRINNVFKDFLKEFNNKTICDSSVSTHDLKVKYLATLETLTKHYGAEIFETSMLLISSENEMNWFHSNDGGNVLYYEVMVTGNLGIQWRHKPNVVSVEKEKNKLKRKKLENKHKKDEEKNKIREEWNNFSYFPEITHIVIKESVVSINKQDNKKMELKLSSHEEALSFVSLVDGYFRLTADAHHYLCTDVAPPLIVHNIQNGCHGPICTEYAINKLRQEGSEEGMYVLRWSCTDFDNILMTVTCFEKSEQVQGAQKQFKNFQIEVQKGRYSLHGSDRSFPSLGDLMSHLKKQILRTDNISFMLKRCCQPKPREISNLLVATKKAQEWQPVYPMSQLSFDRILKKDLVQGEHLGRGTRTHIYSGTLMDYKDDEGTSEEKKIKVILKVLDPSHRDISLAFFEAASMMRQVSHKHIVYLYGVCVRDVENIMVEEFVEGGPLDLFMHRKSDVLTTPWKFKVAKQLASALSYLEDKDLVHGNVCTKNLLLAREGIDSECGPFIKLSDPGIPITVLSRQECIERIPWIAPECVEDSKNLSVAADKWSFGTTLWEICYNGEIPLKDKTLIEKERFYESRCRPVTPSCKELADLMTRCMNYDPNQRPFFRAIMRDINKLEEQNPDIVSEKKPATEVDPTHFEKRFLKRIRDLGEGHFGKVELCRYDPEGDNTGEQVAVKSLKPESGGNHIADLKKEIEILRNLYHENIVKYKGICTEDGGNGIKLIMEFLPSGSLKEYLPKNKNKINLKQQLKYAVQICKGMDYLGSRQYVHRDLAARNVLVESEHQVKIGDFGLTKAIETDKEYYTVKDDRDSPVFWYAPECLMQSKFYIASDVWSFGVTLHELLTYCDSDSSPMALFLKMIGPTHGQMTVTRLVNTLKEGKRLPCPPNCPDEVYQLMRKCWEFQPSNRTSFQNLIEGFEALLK
Excerpt: as §1, §2, §3, §4, §5, §6
as §7, with “JAK1” for “JAK2”, “8” for “10”, “Y12” for “Y7”, “KPZ3121C;” for “KNZ3071C,”, “12.5” for “4”, “PV4775).” for “PV4288).”

[5] = read-out: JAK2 Enzyme IC50 1 mM ATP, 1 mM ATP, averaged IC50 ranges
[6] = read-out: TYK2 Enzyme IC50 1 mM ATP, 1 mM ATP, averaged IC50 ranges
[7] = JAK1 Enzyme IC50 1 mM ATP, averaged IC50 ranges

Chain of JAK2 (O60674 whole entry): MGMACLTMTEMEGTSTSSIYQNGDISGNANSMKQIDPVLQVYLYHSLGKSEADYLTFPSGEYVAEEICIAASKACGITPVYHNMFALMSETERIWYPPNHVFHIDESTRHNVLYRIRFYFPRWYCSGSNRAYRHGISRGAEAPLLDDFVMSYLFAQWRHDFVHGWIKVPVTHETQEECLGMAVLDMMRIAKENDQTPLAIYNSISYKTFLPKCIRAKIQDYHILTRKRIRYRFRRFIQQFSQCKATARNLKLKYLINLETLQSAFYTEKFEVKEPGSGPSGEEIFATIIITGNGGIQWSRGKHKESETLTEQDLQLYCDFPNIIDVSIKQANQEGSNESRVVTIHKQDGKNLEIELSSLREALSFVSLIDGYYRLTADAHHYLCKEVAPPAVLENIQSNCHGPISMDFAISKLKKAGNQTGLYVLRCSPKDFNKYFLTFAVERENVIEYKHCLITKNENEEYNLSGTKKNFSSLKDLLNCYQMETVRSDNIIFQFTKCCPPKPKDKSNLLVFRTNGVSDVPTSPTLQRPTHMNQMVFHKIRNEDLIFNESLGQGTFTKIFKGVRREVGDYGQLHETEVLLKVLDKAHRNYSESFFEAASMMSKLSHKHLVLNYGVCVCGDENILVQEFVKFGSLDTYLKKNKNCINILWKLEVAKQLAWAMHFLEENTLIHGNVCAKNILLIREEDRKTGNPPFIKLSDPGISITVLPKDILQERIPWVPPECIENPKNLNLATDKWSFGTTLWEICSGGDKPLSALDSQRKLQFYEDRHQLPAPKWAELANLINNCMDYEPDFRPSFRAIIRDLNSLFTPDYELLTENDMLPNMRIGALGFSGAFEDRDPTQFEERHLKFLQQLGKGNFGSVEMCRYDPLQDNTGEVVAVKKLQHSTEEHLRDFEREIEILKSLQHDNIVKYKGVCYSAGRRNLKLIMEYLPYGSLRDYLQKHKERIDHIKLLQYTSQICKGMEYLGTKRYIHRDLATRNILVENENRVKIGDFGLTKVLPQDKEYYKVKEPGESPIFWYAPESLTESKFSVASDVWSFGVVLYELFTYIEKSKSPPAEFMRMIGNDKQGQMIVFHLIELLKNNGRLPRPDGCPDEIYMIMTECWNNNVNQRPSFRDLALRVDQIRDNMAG

| IC50 [1, 5] [nM] | IC50 [2, 6] [nM] | SMILES | also measured |
| --- | --- | --- | --- |
| 10 to 100 | – | CC[C@H](C1CC1)n1cc(-c2nc(-c3cnn(C[C@@H](O)CO)c3)cn3nccc23)cn1 (single isomer, unassigned) [Example 213] | – |
| < 10 | – | CCC(CC)n1cc(-c2nc(-c3cnn(C4CS(=O)(=O)C4)c3)cn3nccc23)cn1 [Example 13, 3-(4-(4-(1-(pentan-3-yl)-1H-pyrazol-4-yl)pyrazolo[1,5-a]pyrazin-6-yl)-1H-pyrazol-1-yl)thietane 1,1-dioxide] | – |
| < 10 | – | CCC(CC)n1cc(-c2nc(-c3cnn(C4CCN(C(C)=O)CC4)c3)cn3nccc23)cn1 [Example 31, 1-(4-(4-(4-(1-(pentan-3-yl)-1H-pyrazol-4-yl)pyrazolo[1,5-a]pyrazin-6-yl)-1H-pyrazol-1-yl)piperidin-1-yl)ethanone] | – |
| < 10 | < 10 | CCC(CC)n1cc(-c2nc(-c3cnn(C4CCN(S(C)(=O)=O)CC4)c3)cn3nccc23)cn1 [Example 32, 6-(1-(1-(methylsulfonyl)piperidin-4-yl)-1H-pyrazol-4-yl)-4-(1-(pentan-3-yL)-1H-pyrazol-4-yl)pyrazolo[1,5-a]pyrazine] | – |
| < 10 | < 10 | CCC(CC)n1cc(-c2nc(-c3cnn(C4CCN(C(=O)COC)CC4)c3)cn3nccc23)cn1 [Example 33, 2-methoxy-1-(4-(4-(4-(1-(pentan-3-yl)-1H-pyrazol-4-yl)pyrazolo[1,5-a]pyrazin-6-yl)-1H-pyrazol-1-yl)piperidin-1-yl)ethanone] | – |
| < 10 | – | CCC(CC)n1cc(-c2nc(-c3cnn(C4CCN(C(=O)NC)CC4)c3)cn3nccc23)cn1 [Example 34, N-methyl-4-(4-(4-(1-(pentan-3-yl)-1H-pyrazol-4-yl)pyrazolo[1,5-a]pyrazin-6-yl)-1H-pyrazol-1-yl)piperidine-1-carboxamide] | – |
| < 10 | < 10 | CCC(CC)n1cc(-c2nc(-c3cnn(C4CCN(C(=O)CN)CC4)c3)cn3nccc23)cn1 [Example 36, 2-amino-1-(4-(4-(4-(1-(pentan-3-yl)-1H-pyrazol-4-yl)pyrazolo[1,5-a]pyrazin-6-yl)-1H-pyrazol-1-yl)piperidin-1-yl)ethanone] | – |
| < 10 | – | CC[C@@H](C)n1cc(-c2nc(-c3cnn(C(CO)CO)c3)cn3nccc23)cn1 [Example 85, (R)-2-(4-(4-(1-(sec-butyl)-1H-pyrazol-4-yl)pyrazolo[1,5-a]pyrazin-6-yl)-1H-pyrazol-1-yl)propane-1,3-diol] | – |
| – | < 10 | CCC[C@H](C)n1cc(-c2nc(-c3cnn(C[C@H](O)CO)c3)cn3nccc23)cn1 [Example 86, (S)-3-(4-(4-(1-((S)-pentan-2-yl)-1H-pyrazol-4-yl)pyrazolo[1,5-a]pyrazin-6-yl)-1H-pyrazol-1-yl)propane-1,2-diol] | – |
| 1000 to 10000 | – | CC1(C)CCC[C@@H]1n1cc(-c2nc(-c3cnn(C[C@@H](O)CO)c3)cn3nccc23)cn1 [Example 95, (R)-3-(4-(4-(1-((S)-2,2-dimethylcyclopentyl)-1H-pyrazol-4-yl)pyrazolo[1,5-a]pyrazin-6-yl)-1H-pyrazol-1-yl)propane-1,2-diol] | – |
| – | – | CCC(CC)n1cc(-c2nc(-c3cnn([C@H]4CC[C@H](O)CC4)c3)cn3nccc23)cn1 [Example 118, trans-4-(4-(4-(1-(pentan-3-yl)-1H-pyrazol-4-yl)pyrazolo[1,5-a]pyrazin-6-yl)-1H-pyrazol-1-yl)cyclohexanol] | IC50 [3]: 1 to 10 µM |
| – | – | CCC(CC)n1cc(-c2nc(-c3cnn([C@H]4CC[C@@H](O)CC4)c3)cn3nccc23)cn1 [Example 121, cis-4-(4-(4-(1-(pentan-3-yl)-1H-pyrazol-4-yl)pyrazolo[1,5-a]pyrazin-6-yl)-1H-pyrazol-1-yl)cyclohexanol] | IC50 [3]: 1 to 10 µM |
| 10 to 100 | – | CCC(CC)n1cc(-c2nc(-c3cnn([C@@H]4C[C@@H](O)[C@@H](O)C4)c3)cn3nccc23)cn1 [Example 132, (1R,2S,4s)-4-(4-(4-(1-(pentan-3-yl)-1H-pyrazol-4-yl)pyrazolo[1,5-a]pyrazin-6-yl)-1H-pyrazol-1-yl)cyclopentane-1,2-diol] | IC50 ([4]; read-out: JAK1 Enzyme IC50 1 mM ATP, averaged IC50 ranges): 100 to 1000 nM |
| – | – | CCC(CC)n1cc(-c2nc(-c3cnn(C4CC(C(N)=O)C4)c3)cn3nccc23)cn1 (centres unmarked) [Example 168, (1s,3s)-3-(4-(4-(1-(pentan-3-yl)-1H-pyrazol-4-yl)pyrazolo[1,5-a]pyrazin-6-yl)-1H-pyrazol-1-yl)cyclobutanecarboxamide] | IC50 [4, 7]: 1000 to 10000 nM |
| – | < 10 | CCC(CC)n1cc(-c2nc(-c3cnn(C4CN(C(=O)C(C)(C)O)C4)c3)cn3nccc23)cn1 [Example 176, 2-hydroxy-2-methyl-1-(3-(4-(4-(1-(pentan-3-yl)-1H-pyrazol-4-yl)pyrazolo[1,5-a]pyrazin-6-yl)-1H-pyrazol-1-yl)azetidin-1-yl)propan-1-one] | – |
| – | < 10 | CCC(CC)n1cc(-c2nc(-c3cnn(C4CN(C(=O)C5(O)CC5)C4)c3)cn3nccc23)cn1 [Example 177, (1-hydroxycyclopropyl)(3-(4-(4-(1-(pentan-3-yl)-1H-pyrazol-4-yl)pyrazolo[1,5-a]pyrazin-6-yl)-1H-pyrazol-1-yl)azetidin-1-yl)methanone] | – |
| – | – | CCC(CC)n1cc(-c2nc(-c3cnn([C@@H]4CCC[C@@H]4O)c3)cn3nccc23)cn1 [Example 189, (1S,2R)-2-(4-(4-(1-(pentan-3-yl)-1H-pyrazol-4-yl)pyrazolo[1,5-a]pyrazin-6-yl)-1H-pyrazol-1-yl)cyclopentanol] | IC50 [4, 7]: 1000 to 10000 nM; IC50 [1]: 10 to 100 nM; IC50 [2]: 10 to 100 nM |
